One test concerns ECHCG (barnyardgrass). Nature of the test: Pre-emergence herbicidal activity, warm season. It is filed as in vivo, Echinochloa crus-galli. As to conditions: GR80 = lowest tested rate (300, 100, 30, 10 g/ha) with 80% or greater inhibition; approx. 14 days after treating; 30/21° C. The procedure, abridged: (§1)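 Activity is expressed as the rate giving 80% inhibition, with 300, 100, 30 and 10 g/ha typically tested. An asterisk marks activity short of 80% at the top rate. Warm-season grasses were held at 30/21 °C; cool-season blackgrass and wild buckwheat at 18/13 °C; scoring at about 14 days.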

In test [1] the test system is PANMI (wild proso millet). Nature of the test: Pre-emergence herbicidal activity, warm season. As to conditions: GR80 = lowest tested rate (300, 100, 30, 10 g/ha) with 80% or greater inhibition; approx. 14 days after treating; 30/21° C. It is filed as in vivo, Panicum miliaceum. The procedure, abridged: (§2)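 Herbicidal efficacy was judged visually as percent inhibition compared with untreated plants some 14 days after treatment, giving GR80 over doses of 10 to 300 g/ha. Proso millet and crabgrass grew at 30/21 °C; blackgrass and wild buckwheat grew at 18/13 °C.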

Another test has as its system SORVU (shattercane). Nature of the test: Pre-emergence herbicidal activity, warm season. Format: in vivo, Sorghum vulgare. As to conditions: GR80 = lowest tested rate (300, 100, 30, 10 g/ha) with 80% or greater inhibition; approx. 14 days after treating; 30/21° C. The procedure, abridged:
as §1

The subject of test [2] is BRAPP (broadleaf signalgrass). Nature of the test: Pre-emergence herbicidal activity, warm season. As to conditions: GR80 = lowest tested rate (300, 100, 30, 10 g/ha) with 80% or greater inhibition; approx. 14 days after treating; 30/21° C. Format: in vivo, Brachiaria platyphylla. In short, it runs like this:
as §1

Test [3] concerns GALAP (catchweed bedstraw). Nature of the test: Pre-emergence herbicidal activity, cool season. Format: in vivo, Galium aparine. Particulars: lowest tested rate with 80% or greater inhibition; rates 300, 100, 30, 10 g/ha; about 14 days. The procedure, abridged:
(§3)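 Seeds sown in sterilised fertilised topsoil received surface-applied compound in 50:50 acetone/water, typically at 300, 100, 30 and 10 g/ha, then greenhouse-grown at 30/21° C (warm-season species) or 18/13° C (cool-season species). Percent inhibition versus untreated plants was scored at about 14 days, giving GR80; an asterisk marks activity short of 80% at the top rate.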

Another test has as its system POLCO (wild buckwheat). Nature of the test: Pre-emergence herbicidal activity, cool season. It is filed as in vivo, Polygonum convolvulus. As to conditions: lowest tested rate with 80% or greater inhibition; rates 300, 100, 30, 10 g/ha; about 14 days. In short, it runs like this: as §2
A further test deals with SINAR (wild mustard). Nature of the test: Pre-emergence herbicidal activity, cool season. It is filed as in vivo, Sinapis arvensis. As to conditions: lowest tested rate with 80% or greater inhibition; rates 300, 100, 30, 10 g/ha; about 14 days. The procedure, abridged:
as §3

The subject of test [4] is VERPE (creeping speedwell). Nature of the test: Pre-emergence herbicidal activity, cool season. Format: in vivo, Veronica persicaria. Particulars: lowest tested rate with 80% or greater inhibition; rates 300, 100, 30, 10 g/ha; about 14 days. In short, it runs like this:
as §3

Another test concerns SASKR (russian thistle). Nature of the test: Pre-emergence herbicidal activity, cool season. It is filed as in vivo, Salsola kali. Particulars: lowest tested rate with 80% or greater inhibition; rates 300, 100, 30, 10 g/ha; about 14 days. In short, it runs like this:
as §3

A further test relates to STEME (common chickweed). Nature of the test: Pre-emergence herbicidal activity, cool season. Format: in vivo, Stellaria media. As to conditions: lowest tested rate with 80% or greater inhibition; rates 300, 100, 30, 10 g/ha; about 14 days. In short, it runs like this:
as §3

The subject of test [5] is LAMPU (purple deadnettle). Nature of the test: Pre-emergence herbicidal activity, cool season. Format: in vivo, Lamium purpureum. As to conditions: lowest tested rate with 80% or greater inhibition; rates 300, 100, 30, 10 g/ha; about 14 days. In short, it runs like this:
as §3

In test [6] the test system is AGSST (creeping bentgrass). Nature of the test: Pre-emergence herbicidal activity, cool season. It is filed as in vivo, Agrostis stolonifera. As to conditions: GR80 = lowest tested rate (300, 100, 30, 10 g/ha) with 80% or greater inhibition; approx. 14 days after treating; 18/13° C. In short, it runs like this:
as §3

The subject of test [7] is GALAP (catchweed bedstraw). Nature of the test: Post-emergence herbicidal activity, cool season. Format: in vivo, Galium aparine. Particulars: abraded plants sprayed; GR80 = lowest tested rate (300, 100, 30, 10 g/ha) with 80% or greater inhibition; approx. 14 days after treatment; 18/13° C. As for the experimental part: (§4) In another set of tests, the post-emergence activity of compounds of this invention was evaluated on the cool season species listed above. The following procedure was used.
(§5) A pre-prepared topsoil mixture (described above) was placed in a pot and compacted to a depth of 1.0 to 1.25 cm from the top of the pot. Seeds of each of several monocotyledonous and dicotyledonous annual plant species were placed on top of the soil. The seeds were covered with a mixture of 50% topsoil and 50% Rediearth™ in sufficient quantity to level-fill the pots. The pots were then placed on a greenhouse bench and subirrigated as needed.
When plants growing from the seeds had emerged and reached a suitable growth stage for post-emergence treatment, typically 9 to 14 days after planting, above-ground parts of the plants were subjected to a pre-treatment involving abrasion to create greater opportunity for foliar uptake of subsequently applied compounds. Abrasion was performed using garnet 200w particles applied with a Sears Craftsman hand-held sandblaster operated at approximately 850 kPa (50 psig) pressure. […]
After treatment the plants were placed in a greenhouse with an 18/13° C. day/night temperature regime and were subsequently watered as needed for growth. Approximately 14 days after treatment, the plants were observed and herbicidal efficacy recorded as percent inhibition by comparison with control plants. […]

In a further test the test system is ALOMY (blackgrass). Nature of the test: Post-emergence herbicidal activity, cool season. Format: in vivo, Alopecurus myosuroides. As to conditions: abraded plants sprayed at 300, 100, 30 and 10 g/ha; about 14 days after treatment. As for the experimental part: as §4, §5
(§6) When plants growing from the seeds had emerged and reached a suitable growth stage for post-emergence treatment, typically 9 to 14 days after planting, above-ground parts of the plants were subjected to a pre-treatment involving abrasion to create greater opportunity for foliar uptake of subsequently applied compounds. Abrasion was performed using garnet 200w particles applied with a Sears Craftsman hand-held sandblaster operated at approximately 850 kPa (50 psig) pressure.
(§7) A known amount of each test compound dissolved or suspended in an appropriate organic solvent was diluted with a 50:50 mix of acetone and water and applied to the plants by spraying with a standard spray nozzle in a spray volume of […] at a spray pressure of 511 kPa (30 psig). Only the compounds of Examples 1, 8-15 and 17-22 were included in post-emergence tests. Application rates for these compounds were 300, 100, 30 and 10 g/ha. Control plants were abraded but not sprayed.
(§8) After treatment the plants were placed in a greenhouse with an 18/13° C. day/night temperature regime and were subsequently watered as needed for growth. Approximately 14 days after treatment, the plants were observed and herbicidal efficacy recorded as percent inhibition by comparison with control plants. GR80 values were assigned for each compound as described above for the pre-emergence tests.

For the next test, the system named is SETVI (green foxtail). Nature of the test: Post-emergence herbicidal activity, cool season. Format: in vivo, Setaria viridis. Particulars: abraded plants sprayed at 300, 100, 30 and 10 g/ha; about 14 days after treatment. As for the experimental part:
as §4, §5, §6, §7, §8

In a further test the test system is LOLMG (annual ryegrass). Nature of the test: Post-emergence herbicidal activity, cool season. Format: in vivo, Lolium multiflorum. As to conditions: abraded plants sprayed at 300, 100, 30 and 10 g/ha; about 14 days after treatment. How it is done: as §4, §5, §6, §7, §8
The test system of a further test is BROTE (downy brome). Nature of the test: Post-emergence herbicidal activity, cool season. Particulars: abraded plants sprayed at 300, 100, 30 and 10 g/ha; about 14 days after treatment. Format: in vivo, Bromus tectorum. How it is done: as §4, §5, §6, §7, §8
The subject of a further test is AVEFA (wild oat). Nature of the test: Post-emergence herbicidal activity, cool season. As to conditions: abraded plants sprayed at 300, 100, 30 and 10 g/ha; about 14 days after treatment. It is filed as in vivo, Avena fatua. How it is done: as §4, §5, §6, §7, §8
Test [8] deals with AEGCY (jointed goatgrass). Nature of the test: Post-emergence herbicidal activity, cool season. It is filed as in vivo, Aegilops cylindrica. As to conditions: abraded plants sprayed at 300, 100, 30 and 10 g/ha; about 14 days after treatment. As for the experimental part:
as §4, §5, §6, §7, §8

Test [9] concerns AGSST (creeping bentgrass). Nature of the test: Post-emergence herbicidal activity, cool season. Format: in vivo, Agrostis stolonifera. As to conditions: abraded plants sprayed at 300, 100, 30 and 10 g/ha; about 14 days after treatment. How it is done: as §4, §5, §6, §7, §8
In test [10] the test system is AGRRE (quackgrass (seedling)). Nature of the test: Post-emergence herbicidal activity, cool season. It is filed as in vivo, Elymus repens. As to conditions: abraded plants sprayed at 300, 100, 30 and 10 g/ha; about 14 days after treatment. How it is done: as §4, §5, §6, §7, §8

Data on 1 compound can be found in US6461997B1, “Triazole sulfones having herbicidal activity” (Monsanto Technology LLC, priority 1999, dated 2002).

With `CCN(CC)C(=O)n1cnc(S(=O)(=O)C(F)(F)SCCO)n1` [Example 12, 1-(N,N-diethylcarbamoyl)-3-[(2-hydroxyethylthio)difluoromethylsulfonyl]-1,2,4-triazole], in the test with ECHCG (barnyardgrass), the “Pre-emergence activity (GR80) ECHCG” value is given as “* (activity observed, at least at highest rate, but <80% inhibition)”. Further, the “Pre-emergence activity (GR80) PANMI” value in test [1] is recorded as “* (activity observed, at least at highest rate, but <80% inhibition)”. Also, the “Pre-emergence activity (GR80) SORVU” value in the test on SORVU (shattercane) is “* (activity observed, at least at highest rate, but <80% inhibition)”. For the same compound, the “Pre-emergence activity (GR80) BRAPP” value in [2] is on record as “* (activity observed, at least at highest rate, but <80% inhibition)”. The “Pre-emergence activity GR80, GALAP” value in test [3] is “[empty]”. The “Pre-emergence activity GR80, POLCO” value in the test on POLCO (wild buckwheat) was “[empty]”. Besides, in the test with SINAR (wild mustard), the “Pre-emergence activity GR80, SINAR” value is “[empty]”. The “Pre-emergence activity GR80, VERPE” value in [4] is “[empty]”. Also, the “Pre-emergence activity GR80, SASKR” value in the test with SASKR (russian thistle) is “[empty]”. Also, the “Pre-emergence activity GR80, STEME” value with STEME (common chickweed) is reported as 300 g/ha. The “Pre-emergence activity GR80, LAMPU” value in test [5] is reported as 300 g/ha. Also, in [6], the “Pre-emergence activity (GR80) AGSST” value is recorded as 300 g/ha. In addition, the “Post-emergence activity (GR80) GALAP” value in test [7] is reported as 300 g/ha. For the same compound, the “Post-emergence activity GR80, ALOMY” value in the test on ALOMY (blackgrass) was “[empty]”. The “Post-emergence activity GR80, SETVI” value in the test on SETVI (green foxtail) is “[empty]”. Besides, the “Post-emergence activity GR80, LOLMG” value with LOLMG (annual ryegrass) is “[empty]”. Moreover, the “Post-emergence activity GR80, BROTE” value in the test with BROTE (downy brome) was “[empty]”. Moreover, the “Post-emergence activity GR80, AVEFA” value in the test with AVEFA (wild oat) is “[empty]”. The “Post-emergence activity GR80, AEGCY” value in [8] was “[empty]”. The “Post-emergence activity GR80, AGSST” value in test [9] was “[empty]”. Moreover, the “Post-emergence activity GR80, AGRRE” value in test [10] was “[empty]”.
